According to patent US20150202187A1, “COMPOSITIONS AND METHODS FOR TREATMENT OF VITILIGO” (priority 2012, published 2015):

Assays:
human melanocytes = test: Melanogenesis in cultured primary human melanocytes; assay type: cell-based
Experimental: Rapamycin (also called sirolimus) inhibits immune attack by inhibiting the response to interleukin-2 (IL-2) and blocking activation of T- and B-cells. Rapamycin binds to the cytosolic protein FK-binding protein 12 (FKBP12) and inhibits the mammalian target of rapamycin (mTOR) pathway by directly binding the mTOR Complex 1 (mTORC1). […] For example, FIG. 1 depicts a western blot of lysates from HL60 cells, a model system for studying human myeloid cell differentiation, which were treated with rapamycin for 24 hours. […] Additionally, FIG. 2 depicts human melanocytes that were treated with rapamycin (0.01 μM) for 96 hours.
(§1) In FIG. 5, Primary Human melanocytes were treated with each agent or the combination for 96 h. […] FIG. 7 depicts a Western blot for protein expression of survival signals in primary human melanocytes treated with FGF, stem cell factor (SCF), forskolin and alpha-MSH, as compared to untreated melanocytes. […] Designation of 1 indicates the darkening (repigmentation) of skin surrounding hair follicles.

[1] = test system: primary human melanocytes; test: Proliferation of primary human melanocytes; assay type: cell-based; settings: 10 ng/mL, 96 h, DMSO as untreated control (FIG. 3)
Experimental: In some embodiments, the present invention is directed to a composition comprising a cosmeceutically acceptable carrier, rapamycin and growth factors such as fibroblast growth factor (FGF), Stem cell Factor (SCF) or Endothelins. […] In FIG. 3, treated Primary Human melanocytes were treated with bFGF (10 ng/mL) with DMSO as untreated control for 96 h. Growth Factors such as basic Fibroblast Growth Factor, Stem Cell Factor and Endothelins are important regulators of melanocyte differentiation, migration, proliferation and survival. Growth factors can therefore protect cells from destruction induced by immune cells. Furthermore, growth factors such as those described, can potentially increase migration of melanoblasts (melanocyte precursor cells) from peripheral regions of vitiligo patches or from hair follicles into the vitiligo lesion thus allowing repigmentation.
as §1

Compound: N[C@@H](Cc1ccc(O)cc1)C(=O)O [L-Tyrosine]
- melanogenesis in cultured primary melanocytes (human melanocytes; 96 hours (FIG. 10)): increased melanogenesis

Compound: N[C@@H](Cc1ccc(O)c(O)c1)C(=O)O [L-dopa, L-DOPA]
- melanogenesis compared to untreated melanocytes (human melanocytes; FIG. 6): increased melanogenesis
- melanogenesis in human melanocytes (human melanocytes; each agent alone, 96 h (FIG. 4)): melanogenesis increases

Compound: bFGF: recombinant human basic fibroblast growth factor (FGF2)
- proliferation of primary human melanocytes [1]: increases proliferation
